Laboratory results from US8653041B2, “Antibacterial aminoglycoside analogs” (Achaogen, Inc., priority 2010, dated 2014).
Converted amounts (≈) assume the structure as drawn. Read-outs that look alike come from different tables or passages of the source. Blank lines part the entries; values can stand above or below the molecule they belong to.

What was measured:
[1] = system: Pseudomonas aeruginosa; experiment: MIC, CLSI broth microdilution, Pseudomonas aeruginosa panel; assay type: cell-based; details: Pseudomonas aeruginosa, read-out: MIC
Description: (§1) Minimum inhibitory concentrations (MIC) were determined by reference Clinical and Laboratory Standards Institute (CLSI) broth microdilution methods per M7-A7 [2006]. Quality control ranges utilizing E. coli ATCC 25922, P. aeruginosa ATCC 27853 and S. aureus ATCC 29213, and interpretive criteria for comparator agents were as published in CLSI M100-S17 [2007]. Briefly, serial two-fold dilutions of the test compounds were prepared at 2× concentration in Mueller Hinton Broth. The compound dilutions were mixed in 96-well assay plates in a 1:1 ratio with bacterial inoculum. The inoculum was prepared by suspension of a colony from an agar plate that was prepared the previous day. Bacteria were suspended in sterile saline and added to each assay plate to obtain a final concentration of 5×10^5 CFU/mL. The plates were incubated at 35 C for 20 hours in ambient air.
The MIC panel presented in Table 1 contains 27 isolates of Pseudomonas aeruginosa: strains 1-22 are clinical isolates from around the world collected between 2004-2007 which contain representative resistance mechanisms commonly found in Pseudomonas, such as the AAC(6′)-I, AAC(6′)-II, APH(3′)-IIb, ANT(2″)-I, and perm/efflux; strains 23-27 are susceptible.

[2] = system: Acinetobacter baumannii; experiment: MIC, CLSI broth microdilution, Acinetobacter baumannii panel; assay type: cell-based; details: Acinetobacter baumannii, read-out: MIC
Description: as §1
The MIC panel presented in Table 2 contains 29 isolates of Acinetobacter baumannii: strains 1-24 are clinical isolates from around the world collected between 2004-2007 which contain representative resistance mechanisms commonly found in Acinetobacter baumannii, such as AAC(3)-I and II, AAC(6′)-I, ANT(2″)-I, APH(3′)-VI, and perm/efflux; strains 25-29 are susceptible.

[3] = P. aeruginosa clinical strain 1 (resistant clinical isolate)
[4] = P. aeruginosa clinical strain 2 (resistant clinical isolate)
[5] = P. aeruginosa clinical strain 3 (resistant clinical isolate)
[6] = P. aeruginosa clinical strain 4 (resistant clinical isolate)
[7] = P. aeruginosa clinical strain 5 (resistant clinical isolate)
[8] = P. aeruginosa clinical strain 6 (resistant clinical isolate)
[9] = P. aeruginosa clinical strain 7 (resistant clinical isolate)
[10] = P. aeruginosa clinical strain 8 (resistant clinical isolate)
[11] = P. aeruginosa clinical strain 9 (resistant clinical isolate)
[12] = P. aeruginosa clinical strain 10 (resistant clinical isolate)
[13] = P. aeruginosa clinical strain 11 (resistant clinical isolate)
[14] = P. aeruginosa clinical strain 12 (resistant clinical isolate)
[15] = P. aeruginosa clinical strain 13 (resistant clinical isolate)
[16] = P. aeruginosa clinical strain 14 (resistant clinical isolate)
[17] = P. aeruginosa clinical strain 15 (resistant clinical isolate)
[18] = P. aeruginosa clinical strain 16 (resistant clinical isolate)
[19] = P. aeruginosa clinical strain 17 (resistant clinical isolate)
[20] = P. aeruginosa clinical strain 18 (resistant clinical isolate)
[21] = P. aeruginosa clinical strain 19 (resistant clinical isolate)
[22] = P. aeruginosa clinical strain 20 (resistant clinical isolate)
[23] = P. aeruginosa clinical strain 21 (resistant clinical isolate)
[24] = P. aeruginosa clinical strain 22 (resistant clinical isolate)
[25] = P. aeruginosa strain 23 (susceptible)
[26] = P. aeruginosa strain 24 (susceptible)
[27] = P. aeruginosa strain 25 (susceptible)
[28] = P. aeruginosa strain 26 (susceptible)
[29] = P. aeruginosa strain 27 (susceptible)
[30] = A. baumannii clinical strain 1 (resistant clinical isolate)
[31] = A. baumannii clinical strain 2 (resistant clinical isolate)
[32] = A. baumannii clinical strain 3 (resistant clinical isolate)
[33] = A. baumannii clinical strain 4 (resistant clinical isolate)
[34] = A. baumannii clinical strain 5 (resistant clinical isolate)
[35] = A. baumannii clinical strain 6 (resistant clinical isolate)
[36] = A. baumannii clinical strain 7 (resistant clinical isolate)
[37] = A. baumannii clinical strain 8 (resistant clinical isolate)
[38] = A. baumannii clinical strain 9 (resistant clinical isolate)
[39] = A. baumannii clinical strain 10 (resistant clinical isolate)
[40] = A. baumannii clinical strain 11 (resistant clinical isolate)
[41] = A. baumannii clinical strain 12 (resistant clinical isolate)
[42] = A. baumannii clinical strain 13 (resistant clinical isolate)
[43] = A. baumannii clinical strain 14 (resistant clinical isolate)
[44] = A. baumannii clinical strain 15 (resistant clinical isolate)
[45] = A. baumannii clinical strain 16 (resistant clinical isolate)
[46] = A. baumannii clinical strain 17 (resistant clinical isolate)
[47] = A. baumannii clinical strain 18 (resistant clinical isolate)
[48] = A. baumannii clinical strain 19 (resistant clinical isolate)
[49] = A. baumannii clinical strain 20 (resistant clinical isolate)
[50] = A. baumannii clinical strain 21 (resistant clinical isolate)
[51] = A. baumannii clinical strain 22 (resistant clinical isolate)
[52] = A. baumannii clinical strain 23 (resistant clinical isolate)
[53] = A. baumannii clinical strain 24 (resistant clinical isolate)
[54] = A. baumannii strain 25 (susceptible)
[55] = A. baumannii strain 26 (susceptible)
[56] = A. baumannii strain 27 (susceptible)
[57] = A. baumannii strain 28 (susceptible)
[58] = A. baumannii strain 29 (susceptible)

MIC [1, 3]: ≥ 32 µg/mL
MIC [1, 4]: 16 to 32 µg/mL (≈ 34.2 to 68.4 µM)
MIC [1, 5]: ≥ 32 µg/mL
MIC [1, 6]: ≥ 32 µg/mL
MIC [1, 7]: ≥ 32 µg/mL
MIC [1, 8]: ≥ 32 µg/mL
MIC [1, 9]: ≥ 32 µg/mL
MIC [1, 10]: ≥ 32 µg/mL
MIC [1, 11]: ≥ 32 µg/mL
MIC [1, 12]: ≥ 32 µg/mL
MIC [1, 13]: 8 to 16 µg/mL (≈ 17.1 to 34.2 µM)
MIC [1, 14]: ≥ 32 µg/mL
MIC [1, 15]: ≥ 32 µg/mL
MIC [1, 16]: ≥ 32 µg/mL
MIC [1, 17]: ≥ 32 µg/mL
MIC [1, 18]: ≥ 32 µg/mL
MIC [1, 19]: ≥ 32 µg/mL
MIC [1, 20]: ≥ 32 µg/mL
MIC [1, 21]: ≥ 32 µg/mL
MIC [1, 22]: 1 to 8 µg/mL (≈ 2.14 to 17.1 µM)
MIC [1, 23]: ≤ 1 µg/mL
MIC [1, 24]: ≤ 1 µg/mL
MIC [1, 25]: ≤ 1 µg/mL
MIC [1, 26]: ≤ 1 µg/mL
MIC [1, 27]: ≤ 1 µg/mL
MIC [1, 28]: ≤ 1 µg/mL
MIC [1, 29]: 1 to 8 µg/mL (≈ 2.14 to 17.1 µM)
MIC [2, 30]: ≥ 32 µg/mL
MIC [2, 31]: ≥ 32 µg/mL
MIC [2, 32]: ≥ 32 µg/mL
MIC [2, 33]: ≥ 32 µg/mL
MIC [2, 34]: ≥ 32 µg/mL
MIC [2, 35]: ≥ 32 µg/mL
MIC [2, 36]: 1 to 8 µg/mL (≈ 2.14 to 17.1 µM)
MIC [2, 37]: ≥ 32 µg/mL
MIC [2, 38]: ≥ 32 µg/mL
MIC [2, 39]: ≥ 32 µg/mL
MIC [2, 40]: ≥ 32 µg/mL
MIC [2, 41]: 16 to 32 µg/mL (≈ 34.2 to 68.4 µM)
MIC [2, 42]: ≤ 1 µg/mL
MIC [2, 43]: ≤ 1 µg/mL
MIC [2, 44]: ≤ 1 µg/mL
MIC [2, 45]: 1 to 8 µg/mL (≈ 2.14 to 17.1 µM)
MIC [2, 46]: ≤ 1 µg/mL
MIC [2, 47]: 1 to 8 µg/mL (≈ 2.14 to 17.1 µM)
MIC [2, 48]: ≤ 1 µg/mL
MIC [2, 49]: 1 to 8 µg/mL (≈ 2.14 to 17.1 µM)
MIC [2, 50]: ≥ 32 µg/mL
MIC [2, 51]: ≥ 32 µg/mL
MIC [2, 52]: ≥ 32 µg/mL
MIC [2, 53]: ≥ 32 µg/mL
MIC [2, 54]: ≤ 1 µg/mL
MIC [2, 55]: ≤ 1 µg/mL
MIC [2, 56]: ≤ 1 µg/mL
MIC [2, 57]: ≤ 1 µg/mL
MIC [2, 58]: ≤ 1 µg/mL
SMILES: NC[C@H]1O[C@H](O[C@H]2[C@H](O)[C@@H](O[C@H]3O[C@H](CO)[C@@H](O)[C@H](N)[C@H]3O)[C@H](N)C[C@@H]2N)[C@H](N)C[C@@H]1O [TOB, tobramycin]

MIC [1, 3]: ≤ 1 µg/mL
MIC [1, 4]: ≤ 1 µg/mL
MIC [1, 5]: 1 to 8 µg/mL (≈ 1.34 to 10.8 µM)
MIC [1, 6]: 1 to 8 µg/mL (≈ 1.34 to 10.8 µM)
MIC [1, 7]: 1 to 8 µg/mL (≈ 1.34 to 10.8 µM)
MIC [1, 8]: 1 to 8 µg/mL (≈ 1.34 to 10.8 µM)
MIC [1, 9]: ≤ 1 µg/mL
MIC [1, 10]: 8 to 16 µg/mL (≈ 10.8 to 21.5 µM)
MIC [1, 11]: 1 to 8 µg/mL (≈ 1.34 to 10.8 µM)
MIC [1, 12]: 8 to 16 µg/mL (≈ 10.8 to 21.5 µM)
MIC [1, 13]: ≤ 1 µg/mL
MIC [1, 14]: 1 to 8 µg/mL (≈ 1.34 to 10.8 µM)
MIC [1, 15]: 16 to 32 µg/mL (≈ 21.5 to 43 µM)
MIC [1, 16]: 1 to 8 µg/mL (≈ 1.34 to 10.8 µM)
MIC [1, 17]: 1 to 8 µg/mL (≈ 1.34 to 10.8 µM)
MIC [1, 18]: 1 to 8 µg/mL (≈ 1.34 to 10.8 µM)
MIC [1, 19]: 1 to 8 µg/mL (≈ 1.34 to 10.8 µM)
MIC [1, 20]: 1 to 8 µg/mL (≈ 1.34 to 10.8 µM)
MIC [1, 21]: 16 to 32 µg/mL (≈ 21.5 to 43 µM)
MIC [1, 22]: 16 to 32 µg/mL (≈ 21.5 to 43 µM)
MIC [1, 23]: 8 to 16 µg/mL (≈ 10.8 to 21.5 µM)
MIC [1, 24]: 1 to 8 µg/mL (≈ 1.34 to 10.8 µM)
MIC [1, 25]: ≤ 1 µg/mL
MIC [1, 26]: ≤ 1 µg/mL
MIC [1, 27]: ≤ 1 µg/mL
MIC [1, 28]: ≤ 1 µg/mL
MIC [1, 29]: ≤ 1 µg/mL
MIC [2, 30]: 1 to 8 µg/mL (≈ 1.34 to 10.8 µM)
MIC [2, 31]: 8 to 16 µg/mL (≈ 10.8 to 21.5 µM)
MIC [2, 32]: 1 to 8 µg/mL (≈ 1.34 to 10.8 µM)
MIC [2, 33]: 16 to 32 µg/mL (≈ 21.5 to 43 µM)
MIC [2, 34]: 1 to 8 µg/mL (≈ 1.34 to 10.8 µM)
MIC [2, 35]: 1 to 8 µg/mL (≈ 1.34 to 10.8 µM)
MIC [2, 36]: ≤ 1 µg/mL
MIC [2, 37]: 1 to 8 µg/mL (≈ 1.34 to 10.8 µM)
MIC [2, 38]: ≤ 1 µg/mL
MIC [2, 39]: 1 to 8 µg/mL (≈ 1.34 to 10.8 µM)
MIC [2, 40]: ≤ 1 µg/mL
MIC [2, 41]: ≤ 1 µg/mL
MIC [2, 42]: ≤ 1 µg/mL
MIC [2, 43]: 1 to 8 µg/mL (≈ 1.34 to 10.8 µM)
MIC [2, 44]: ≤ 1 µg/mL
MIC [2, 45]: 1 to 8 µg/mL (≈ 1.34 to 10.8 µM)
MIC [2, 46]: 1 to 8 µg/mL (≈ 1.34 to 10.8 µM)
MIC [2, 47]: 8 to 16 µg/mL (≈ 10.8 to 21.5 µM)
MIC [2, 48]: 1 to 8 µg/mL (≈ 1.34 to 10.8 µM)
MIC [2, 49]: 8 to 16 µg/mL (≈ 10.8 to 21.5 µM)
MIC [2, 50]: ≤ 1 µg/mL
MIC [2, 51]: 16 to 32 µg/mL (≈ 21.5 to 43 µM)
MIC [2, 52]: ≤ 1 µg/mL
MIC [2, 53]: 16 to 32 µg/mL (≈ 21.5 to 43 µM)
MIC [2, 54]: ≤ 1 µg/mL
MIC [2, 55]: 1 to 8 µg/mL (≈ 1.34 to 10.8 µM)
MIC [2, 56]: ≤ 1 µg/mL
MIC [2, 57]: ≤ 1 µg/mL
MIC [2, 58]: ≤ 1 µg/mL
SMILES: NCC[C@H](O)C(=O)N[C@@H]1C[C@H](N)[C@@H](O[C@H]2O[C@H](CNCCO)[C@@H](O)C[C@H]2N)[C@H](O[C@@H]2O[C@H](CO)[C@@H](O[C@H]3O[C@@H](CN)[C@@H](O)[C@H](O)[C@H]3N)[C@H]2O)[C@H]1O [Compound 18]
